Structures are written as SMILES. Like-named read-outs stand apart in the source and are kept apart here.

What is called inhibition is the change of the read-out against control, counted positive when it falls. Low readings indicate little suppression, high ones strong suppression.

For test [1], the system named is TNF-α production. As to the kind of experiment: Inhibitory activity against cytokine (TNF-α) production in LPS-stimulated RAW264.7 cells. Format: cell-based, mouse. The following applies: Mus musculus, RAW264.7, 15 h, 1 μM test compound, LPS 10 ng/mL. The procedure, abridged:
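Mouse RAW264.7 macrophages (5,000 cells/well) stimulated with 10 ng/mL LPS (final) and treated with test compound at 1 μM final for 15 h at 37 °C. Supernatant mouse TNF-α measured by ELISA; % inhibition = 100−(A−B)/(C−B)×100, using unstimulated and LPS-only controls.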

Test [2] has as its system Balb/c mice. As to the kind of experiment: Prevention of concanavalin A liver injury. Format: in vivo, mouse. Conditions: Mus musculus, po, 24 h, 10 mg/mL suspension at 10 mL/kg, 30 min prior to Con A, plasma 24 hr after Con A. The protocol:
Five (5) Balb/c mice (female, 6-8 weeks old) per group were used. Liver injury was elicited in the mouse by injection of concanavalin A (Con A) dissolved in saline (2.0 mg/mL) into the tail vein at a volume of 10 mL/kg of the solution (Hepatology, 21, 190-198 (1995)).
The test compounds were suspended in distilled water containing 0.5% CMC, at a concentration of 10 mg/mL. This suspended solution was orally administered to the mouse at a volume of 10 mL/kg, 30 min prior to injection of Con A (group A).
Apart from this group, distilled water containing 0.5% CMC powder, instead of the test compound, was orally administered in the second group of mice (group B). In the 3rd group, nothing was given to the mice (group C).
Twenty four (24) hr after the injection of Con A, blood was collected from the abdominal aorta of the mice and the plasma was isolated while mixing with heparin. Activities of glutamic acid oxaloacetic acid transaminase (AST) and glutamic acid pyruvic acid transaminase (ALT) in the plasma were determined according to the methods described by Nagakawa et al. (J. Pharmacol. Exp. Ther., 264, 496-500 (1993)). From the values obtained inhibitory rates of the test compound against AST and ALT levels which had been increased by injection of Con A, were obtained based on the following equation.
Inhibitory Rate(%)={1−[(A−C)/(B−C)]}×100
A: The average level of AST or ALT in the group A
B: The average level of AST or ALT in the group B
C: The average level of AST or ALT in the group C

Test [3] concerns lenses. As to the kind of experiment: Cataract assessment: opacity of cultured lenses exposed to hydrogen peroxide. Also on record: species or system rat. The following applies: 100 nM test compound with 5 mM hydrogen peroxide; 24 hr; clear: 0, slightly opaque: 1, moderately opaque: 2. The protocol: The lenses were isolated from Sprague-Dawley rats (male, purchased from SLC Japan), and the lenses were pre-cultured in a medium (Medium-199: GIBCO BRL) for 3 hr and the lenses maintaining transparency were selected and used in the experiment. The crystalline lenses were cultured for 24 hr in the following 3 groups; 1) in Medium-199 (3 mL), 2) in Medium-199 (3 mL) containing hydrogen peroxide (final concentration: 5 mM) and 3) in Medium-199 (3 mL) containing the test compound (final concentration: 100 nM), DMSO (final concentration: 0.1% v/v) and hydrogen peroxide (final concentration: 5 mM). After finalising culturing, the opacity of the lens was scored based on the following criteria: clear: 0, slightly opaque: 1, moderately opaque: 2. Thus the improving effect of the test compound on cataracts was assessed.

Test [4] deals with Mouse preadipocyte strain 3T3-L1. As to the kind of experiment: Inhibition of differentiation as an indication of acetic acid uptake. The following applies: Mus musculus, 3T3-L1, 0.1 μM test substance, control (0.01% dimethylsulfoxide) = 100%, read-out: Rate of Uptake (%) of [2-14C] acetic acid. Format: cell-based. The procedure, abridged:
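Confluent 3T3-L1 cells induced to differentiate for 4 days (insulin, IBMX, dexamethasone, 5% FBS) with test compound at 0.1 μM final or 0.01% DMSO, then 2 days in insulin maintenance medium, at 37 °C, 10% CO2. [2-14C]acetic acid uptake over 1 hr counted by scintillation; expressed as % of DMSO control.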

[5] abbreviates: read-out: Preventing rate against liver injury, ALT (%).
The mark [6] stands for this setting: read-out: Preventing rate against liver injury, AST (%).

In test [1], `CN(C)c1ccc(-c2ccc(NC(=O)c3cc([N+](=O)[O-])ccc3Cl)cc2)cc1` [Example 53, N-[4-(4-Dimethylaminophenyl)phenyl]-(2-chloro-5-nitrophenyl)carboxamide] had an inhibition at 1 µM of 15.6%. Also, the inhibition in vivo at 10000 µg/mL, 100 mg/kg was found to be 22% in test [2] (setting [5]) and 1.7% in test [2] (setting [6]). The “opacity of the lens (average score)” value in test [3] is recorded as 1.0. In addition, the activity at 0.1 µM in test [4] amounted to 76.2%.
In the same order, the values of `CC(C)(C)c1cc(-c2csc(NC(=O)c3cc([N+](=O)[O-])ccc3Cl)n2)cc(C(C)(C)C)c1O` [Example 139, N-[4-(3,5-di-tert-Butyl-4-hydroxyphenyl)thiazol-2-yl]-(2-chloro-5-nitrophenyl)carboxamide] are 42.7%, 54%, 48.4%, 1.0 and 59.2%.

The values are drawn from patent US20030134859A1 (SANKYO COMPANY, LIMITED, priority 2000, published 2003).
